{"source": "patent US20120108429A1", "about": "“SAFENED AND EFFICACIOUS WEED CONTROL PARTICLE” (The Andersons, Inc., priority 2010, published 2012)", "origin": "cited, not measured here", "tested_on": "pentas and hemerocallis", "conditions": "application of the herbicide"}
{"compound": "C#CCN1C(=O)COc2cc(F)c(N3C(=O)C4=C(CCCC4)C3=O)cc21", "note": "[flumioxazin]", "values": [{"measurement": "effect on growth of ornamental plants", "value": "inhibited from properly growing"}]}
